Experimental data taken from PMC4877593, “Design and Synthesis of Potent in Vitro and in Vivo Anticancer Agents Based on 1-(3′,4′,5′-Trimethoxyphenyl)-2-Aryl-1H-Imidazole” (Scientific Reports, 2016).
Read-outs that look alike come from different tables or passages of the source.

Columns and labels:
MCF-7 = experiment: In vitro antiproliferative activity (MTT), MCF-7; type: cell-based; conditions: Homo sapiens, MCF7, tumor cell proliferation, 72 h, mean ± SE
Experimental: (§1) Human T-cell leukemia (CCRF-CEM and Jurkat) and human B-cell leukemia (SEM) cells were grown in RPMI-1640 medium (Gibco, Milano, Italy). Breast adenocarcinoma (MCF7), human cervix carcinoma (HeLa), and human colon adenocarcinoma (HT-29) cells were grown in DMEM medium (Gibco, Milano, Italy), all supplemented with 115 units/mL penicillin G (Gibco, Milano, Italy), 115 μg/mL streptomycin (Invitrogen, Milano, Italy), and 10% fetal bovine serum (Invitrogen, Milano, Italy). Stock solutions (10 mM) of the different compounds were obtained by dissolving them in dimethyl sulfoxide (DMSO). Individual wells of a 96-well tissue culture microtiter plate were inoculated with 100 μL of complete medium containing 8 × 10^3 cells. The plates were incubated at 37 °C in a humidified 5% CO2 incubator for 18 h prior to the experiments. After medium removal, 100 μL of fresh medium containing the test compound at different concentrations was added to each well in triplicate and incubated at 37 °C for 72 h. The percentage of DMSO in the medium never exceeded 0.25%. This was also the maximum DMSO concentration in all cell-based assays described below. […] Different concentrations of the test compounds were added, and viability was determined 72 h later by the MTT test. For cytotoxicity evaluations in resting PBL cultures, non-adherent cells were resuspended (5 × 10^5 cells/mL) and treated for 72 h with the test compounds, as described above.

RS4;11 = experiment: In vitro antiproliferative activity (MTT), RS4;11; type: cell-based; conditions: Homo sapiens, tumor cell proliferation, 72 h, mean ± SE
Jurkat = experiment: In vitro antiproliferative activity (MTT), Jurkat; type: cell-based; conditions: Homo sapiens, tumor cell proliferation, 72 h, mean ± SE
Experimental: as §1

A549 = experiment: In vitro antiproliferative activity (MTT), A549; type: cell-based; conditions: Homo sapiens, tumor cell proliferation, 72 h, mean ± SE
Experimental: as §1

HT-29 = experiment: In vitro antiproliferative activity (MTT), HT-29; type: cell-based; conditions: Homo sapiens, tumor cell proliferation, 72 h, mean ± SE
Experimental: as §1

HL-60 = experiment: In vitro antiproliferative activity (MTT), HL-60; type: cell-based; conditions: Homo sapiens, tumor cell proliferation, 72 h, mean ± SE
HeLa = experiment: In vitro antiproliferative activity (MTT), HeLa; type: cell-based; conditions: Homo sapiens, tumor cell proliferation, 72 h, mean ± SE
Experimental: as §1

bovine brain tubulin = experiment: Inhibition of tubulin polymerization (turbidimetry); type: biochemical
Experimental: To evaluate the effect of the compounds on tubulin assembly in vitro[22], varying concentrations of compounds were preincubated with 10 μM bovine brain tubulin in glutamate buffer at 30 °C and then cooled to 0 °C. After addition of 0.4 mM GTP (final concentration), the mixtures were transferred to 0 °C cuvettes in a recording spectrophotometer equipped with an electronic temperature controller and warmed to 30 °C. Tubulin assembly was followed turbidimetrically at 350 nm. […] The ability of the test compounds to inhibit colchicine binding to tubulin was measured as described, except that the reaction mixtures contained 1 μM tubulin, 5 μM [^3H]colchicine and 1 or 5 μM test compound.

[1] = system: panel of seven human tumor cell lines; experiment: Antiproliferative activity across the panel of seven human tumor cell lines; type: cell-based
Experimental: as §1

[2] = tubulin at 10 μM, 20 min incubation, read-out: Tubulin assembly IC50 ± S.D.
[3] = average over the seven cell lines, read-out: average IC50 values

Row | Compound | IC50 (MCF-7) [nM] | IC50 (RS4;11) [nM] | melting point [°C] | IC50 (Jurkat) [nM] | IC50 (A549) [µM] | IC50 (HT-29) [nM] | IC50 (HL-60) [nM] | IC50 (HeLa) [nM] | IC50 (bovine brain tubulin; repeated beside the calculated energies, read-out: inhibition of tubulin polymerization IC50 (Table 4)) [nM] | IC50 (bovine brain tubulin; [2]) [nM] | IC50 [1, 3] [nM] | IC50 ([1]; range over seven cancer cell lines, read-out: IC50 values in the seven cell lines (range)) [nM]
1 | CCSc1ccc(-c2nccn2-c2cc(OC)c(OC)c(OC)c2)cc1 [Compound 4p, 2-(4′-(Ethylthio)phenyl)-1-(3′,4′,5′-trimethoxyphenyl)-1H-imidazole] | 69 ± 7 | 85 ± 20 | 143 to 145 | 127 ± 27 | 0.228 ± 0.081 | 174 ± 16 | 12 ± 2.5 | 48 ± 2.5 |  |  |  | 
2 | CCCOc1ccc(-c2nccn2-c2cc(OC)c(OC)c(OC)c2)cc1 [Compound 4q, 1-(3′,4′,5′-Trimethoxyphenyl)-2-(4′-n-propoxyphenyl)-1H-imidazole] | 1.7 ± 0.6 | 91 ± 8.9 |  | 42 ± 3.9 | 0.063 ± 0.0181 | 15 ± 1.3 | 63 ± 17.6 | 2.9 ± 0.8 | 1400 | 1400 ± 100 |  | 
3 | COc1cc(-n2ccnc2-c2cc(C)c(OC)c(C)c2)cc(OC)c1OC [Compound 4h, 2-(4′-Methoxy-3′,5′-dimethylphenyl)-1-(3′,4′,5′-trimethoxyphenyl)-1H-imidazole] | > 10000 | > 10000 | 153 to 155 | > 10000 | > 10 | > 10000 | 3470 ± 467 | 9160 ± 1590 |  |  |  | 
4 | CCOc1ccccc1-c1nccn1-c1cc(OC)c(OC)c(OC)c1 [Compound 4m, 2-(2′-Ethoxyphenyl)-1-(3′,4′,5′-trimethoxyphenyl)-1H-imidazole] | > 10000 | > 10000 | 130 to 132 | > 10000 | > 10 | > 10000 | > 10000 | > 10000 |  |  |  | 
5 | COc1ccc(/C=C\c2cc(OC)c(OC)c(OC)c2)cc1O [CA-4, Combretastatin A-4, reference compound] | 5 ± 0.6 | […] |  | 0.8 ± 0.2 | […] | 180 ± 30 | […] | […] |  | […] | 523 | 
6 | CCOc1ccc(-c2nccn2-c2cc(OC)c(OC)c(OC)c2)cc1F [Compound 4n, 2-(3′-Fluoro-4′-ethoxyphenyl)-1-(3′,4′,5′-trimethoxyphenyl)-1H-imidazole] | 3.4 ± 0.38 | 8.6 ± 1.1 | 127 to 129 | 12 ± 6.6 | 0.014 ± 0.0023 | 7.5 ± 1.2 | 3.5 ± 0.73 | 1.5 ± 0.32 |  | 570 | 7.2 | 1.5 to 14.2
7 | CCOc1cccc(-c2nccn2-c2cc(OC)c(OC)c(OC)c2)c1 [Compound 4l, 2-(3′-Ethoxyphenyl)-1-(3′,4′,5′-trimethoxyphenyl)-1H-imidazole] | > 10000 | > 10000 | 121 to 122 | > 10000 | > 10 | > 10000 | > 10000 | > 10000 |  |  |  | 
8 | COc1cc(-n2ccnc2-c2ccc(OC(F)(F)F)cc2)cc(OC)c1OC [Compound 4j, 1-(3′,4′,5′-Trimethoxyphenyl)-2-(4′-(trifluoromethoxy)phenyl)-1H-imidazole] | > 10000 | > 10000 | 125 to 127 | 6630 ± 338 | > 10 | > 10000 | > 10000 | > 10000 |  |  |  | 
9 | COc1ccc(-c2nccn2-c2cc(OC)c(OC)c(OC)c2)cc1Cl [Compound 4e, 2-(3′-Chloro-4′-methoxyphenyl)-1-(3′,4′,5′-trimethoxyphenyl)-1H-imidazole] | 666 ± 231 | 715 ± 148 | 176 to 178 | 365 ± 25 | 2.6 ± 0.422 | 647 ± 83 | 453 ± 14 | 263 ± 39 |  |  |  | 
10 | COc1cc(-n2ccnc2-c2ccc(SC)cc2)cc(OC)c1OC [Compound 4c, 1-(3′,4′,5′-Trimethoxyphenyl)-2-(4′-(methylthio)phenyl)-1H-imidazole] | 1360 ± 350 | 800 ± 58 | 158 to 160 | 407 ± 24 | 5.6 ± 0.352 | 330 ± 36 | 333 ± 41 | 337 ± 48 |  |  |  | 
11 | COc1ccc(-c2nccn2-c2cc(OC)c(OC)c(OC)c2)cc1C [Compound 4f, 2-(4′-Methoxy-3′-methylphenyl)-1-(3′,4′,5′-trimethoxyphenyl)-1H-imidazole] | 509 ± 25 | 475 ± 106 | 128 to 130 | 136 ± 38 | 4.72 ± 0.509 | 377 ± 33 | 413 ± 27 | 330 ± 25 |  |  |  | 
12 | COc1ccc(-c2nccn2-c2cc(OC)c(OC)c(OC)c2)cc1F [Compound 4d, 2-(3′-Fluoro-4′-methoxyphenyl)-1-(3′,4′,5′-trimethoxyphenyl)-1H-imidazole] | 74 ± 17 | 217 ± 46 |  | 90 ± 23 | 0.121 ± 0.056 | 112 ± 15 | 29 ± 9.5 | 51 ± 6.5 |  |  |  | 
13 | COc1cc(-n2ccnc2-c2ccc(C)cc2)cc(OC)c1OC [Compound 4a, 1-(3′,4′,5′-Trimethoxyphenyl)-2-p-tolyl-1H-imidazole] | 2800 ± 721 | > 10000 | 142 to 144 | 760 ± 136 | 4.73 ± 0.328 | 1920 ± 354 | 2100 ± 252 | 1260 ± 172 |  |  |  | 
14 | CCc1ccc(-c2nccn2-c2cc(OC)c(OC)c(OC)c2)cc1 [Compound 4b, 2-(4′-Ethylphenyl)-1-(3′,4′,5′-trimethoxyphenyl)-1H-imidazole] | 2090 ± 374 | 5680 ± 259 | 130 to 132 | 4570 ± 758 | 7 ± 1.15 | 1400 ± 200 | 4800 ± 451 | 1980 ± 126 |  |  |  | 
15 | COc1ccc(-c2nccn2-c2cc(OC)c(OC)c(OC)c2)cc1OC [Compound 4i, 1-(3′,4′,5′-Trimethoxyphenyl)-2-(3′,4′-dimethoxyphenyl)-1H-imidazole] | > 10000 | > 10000 |  | > 10000 | > 10 | > 10000 | 3930 ± 517 | > 10000 |  |  |  | 
16 | COc1cc(-c2nccn2-c2cc(OC)c(OC)c(OC)c2)ccc1C [Compound 4g, 2-(4′-Methyl-3′-methoxyphenyl)-1-(3′,4′,5′-trimethoxyphenyl)-1H-imidazole] | > 10000 | 2570 ± 784 |  | 4930 ± 536 | > 10 | > 10000 | > 10000 | 623 ± 98 |  |  |  | 
